ChEMBL document CHEMBL1201862, “PubChem BioAssay data set” (2004)
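Cultured in 96-well plates, cells were exposed to test compound for 48 hours across five concentrations. GI50 = concentration required for 50% inhibition of growth.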 The source made the active and inactive calls. Cut-off read from the data, not from the text of the source: active = GI50 up to about 1.1 µM and inactive = higher. Where a SMILES comes first, the peptide text is derived from it. [ ]: non-standard residue; d: D form. Phe(4-Cl) = N[CH](Cc1ccc(Cl)cc1)C(=O)O

How the values were obtained:
Assay in all cases: DTP human tumour cell line panel, 48 h
[1] = system: SNB-75
[2] = system: K562
[3] = system: Malme-3M
[4] = system: ACHN
[5] = system: SK-MEL-5
[6] = system: HCT-116
[7] = system: SK-OV-3
[8] = system: 786-0
[9] = system: CCRF-CEM
[10] = system: SN12C
[11] = system: OVCAR-8
[12] = system: UACC-257
[13] = system: A498
[14] = system: A549
[15] = system: SK-MEL-28
[16] = system: RXF 393

Measured: GI50

CC(=O)OCC(=O)[C@@]1(O)CC[C@H]2[C@@H]3CCC4=CC(=O)[C@H](C)C[C@]4(C)[C@H]3[C@@H](O)C[C@@]21C
inactive: [1] > 100 µM | [2] > 100 µM | [3] > 100 µM | [4] > 100 µM | [5] > 100 µM | [6] > 100 µM | [7] > 100 µM | [8] > 100 µM | [9] > 100 µM | [10] > 100 µM | [11] > 100 µM | [12] > 100 µM | [13] > 100 µM | [14] > 100 µM | [15] > 100 µM

CN(C)CC1CCC(=C2CCCC2)C1=O (centres undefined)
inactive: [1] 16.2 µM | [2] 2.86 µM | [3] 5.62 µM | [4] 8.18 µM | [5] 17.9 µM | [6] 13.6 µM | [7] > 100 µM | [8] 7.52 µM | [9] 3.03 µM | [10] 10.7 µM | [11] 20 µM | [12] 17.4 µM | [13] 18.7 µM | [16] 10.5 µM | [14] 20.5 µM | [15] 14.4 µM

CCOC(=O)c1c(-c2ccccc2)oc(-c2ccccc2)c1C(=O)OCC
inactive: [1] > 100 µM | [2] 67.3 µM | [3] > 100 µM | [4] > 100 µM | [5] 56.5 µM | [6] > 100 µM | [7] > 100 µM | [8] > 100 µM | [9] 41.1 µM | [10] > 100 µM | [11] > 100 µM | [12] 77.6 µM | [13] 60.7 µM | [16] > 100 µM | [14] > 100 µM | [15] > 100 µM

CC12CCc3ccccc3C1=NNC(=O)C2 (centres undefined)
inactive: [1] > 100 µM | [2] > 100 µM | [3] > 100 µM | [4] > 100 µM | [5] > 100 µM | [6] > 100 µM | [7] > 100 µM | [8] > 100 µM | [9] > 100 µM | [10] > 100 µM | [11] > 100 µM | [12] > 100 µM | [13] > 100 µM | [16] > 100 µM | [14] > 100 µM | [15] > 100 µM

COC(=O)C1(F)C(=O)NC(=O)NC1OC (centres undefined)
inactive: [1] 39.2 µM | [2] 96.2 µM | [3] 34.9 µM | [4] 29 µM | [5] 9.84 µM | [6] 7.8 µM | [7] > 100 µM | [8] 39.7 µM | [9] 3.08 µM | [10] 69 µM | [11] 34.1 µM | [12] > 100 µM | [13] > 100 µM | [14] 5.92 µM | [15] 59.6 µM

CCCCCCCC1(c2ccc(N)cc2)CCC(=O)NC1=O (centres undefined)
inactive: [1] 22.5 µM | [2] 28.4 µM | [3] 28.1 µM | [4] 18.7 µM | [5] 20.7 µM | [7] 33 µM | [8] 28.4 µM | [9] > 10 µM | [10] 30 µM | [11] 35.8 µM | [12] 32.9 µM | [16] 28 µM | [14] 31.6 µM | [15] 28.7 µM

CC1=C(c2cc(C(=O)Nc3cccc(C(F)(F)F)c3)nc(NC#N)n2)Sc2ccccc2N1
inactive: [1] > 100 µM | [2] > 100 µM | [3] > 100 µM | [4] > 100 µM | [5] > 100 µM | [6] > 100 µM | [7] > 100 µM | [8] 97.5 µM | [9] 68.7 µM | [10] > 100 µM | [12] > 100 µM | [13] > 100 µM | [16] > 100 µM | [14] > 100 µM | [15] > 100 µM

COc1ccc2c(c1)NC1(O)c3ccccc3C(=O)C21O (centres undefined)
inactive: [1] > 100 µM | [2] > 100 µM | [3] > 100 µM | [4] > 100 µM | [5] > 100 µM | [6] > 100 µM | [7] > 100 µM | [8] > 100 µM | [9] > 100 µM | [10] > 100 µM | [11] > 100 µM | [12] > 100 µM | [13] > 100 µM | [14] > 100 µM | [15] > 100 µM

COC(=O)C1=C(c2ccc(Cl)cc2)C(O)NC(NN)=N1 (centres undefined)
inactive: [2] > 100 µM | [3] > 100 µM | [4] > 100 µM | [5] > 100 µM | [6] > 100 µM | [7] > 100 µM | [8] > 100 µM | [9] > 100 µM | [10] > 100 µM | [11] > 100 µM | [12] > 100 µM | [16] > 100 µM | [14] > 100 µM | [15] > 100 µM

O=C1c2ccccc2C(Br)(Br)c2ccccc21
inactive: [1] 14.9 µM | [2] > 31.6 µM | [3] > 31.6 µM | [4] > 31.6 µM | [5] > 31.6 µM | [6] > 31.6 µM | [7] > 31.6 µM | [8] > 31.6 µM | [9] > 31.6 µM | [10] > 31.6 µM | [11] > 100 µM | [12] > 100 µM | [13] > 10 µM | [16] 18.2 µM | [14] > 31.6 µM | [15] > 31.6 µM

Cc1cc(C)nc(NS(=O)(=O)c2ccc(NC(=O)c3cccc4c(Nc5ccc(S(N)(=O)=O)cc5)c5ccccc5nc34)cc2)n1
inactive: [1] 5.46 µM | [2] 7.85 µM | [3] 18.2 µM | [4] > 100 µM | [5] 19.1 µM | [6] 7.64 µM | [7] 15.2 µM | [8] 50.8 µM | [9] 6.82 µM | [10] 16.1 µM | [11] 30.3 µM | [12] 28.1 µM | [13] > 94.2 µM | [16] 11.2 µM | [14] > 100 µM | [15] 3.09 µM

Cc1ccc2c(c1)C(c1cccc3ccccc13)OC2=O (centres undefined)
inactive: [1] 36.4 µM | [2] > 100 µM | [3] 51.6 µM | [4] 92.9 µM | [5] 31.4 µM | [6] > 100 µM | [7] 86.3 µM | [8] 56.9 µM | [9] > 100 µM | [10] > 100 µM | [11] 84.5 µM | [12] 53.8 µM | [13] 26 µM | [16] 27.8 µM | [14] 89.3 µM | [15] > 100 µM

COc1ccc2c(c1)[n+]([O-])c(C(=O)CC(=O)C(=O)Nc1cccc(Cl)c1C)c(C)[n+]2[O-]
inactive: [1] > 100 µM | [2] 60.7 µM | [3] > 100 µM | [4] > 100 µM | [5] > 100 µM | [6] > 100 µM | [7] > 100 µM | [8] > 100 µM | [9] 21.7 µM | [10] > 100 µM | [11] > 100 µM | [12] > 100 µM | [13] > 100 µM | [16] > 100 µM | [14] > 100 µM | [15] > 100 µM

CC(O)C(NC(=O)C(Cc1ccccc1)NC(=O)C(NC(=O)C(CCCCN)NC(=O)C(Cc1c[nH]c2ccccc12)NC(=O)C(Cc1ccc(O)cc1)NC(=O)C(Cc1ccc(Cl)cc1)NC(=O)C(N)Cc1ccccc1)C(C)O)C(N)=O (centres undefined) (H-F[Phe(4-Cl)]YWKTFT-NH2; configuration not given here)
inactive: [1] 21 µM | [2] 15.6 µM | [4] 21.9 µM | [6] 18.9 µM | [7] 27.6 µM | [8] 22.4 µM | [9] 15.8 µM | [10] 41.8 µM | [11] 23.9 µM | [12] > 10 µM | [13] 18.8 µM | [16] 16 µM | [14] 16.2 µM | [15] 20.7 µM

O=c1c2ccc(Br)cc2nc(-c2ccccc2)n1NC1OC(CO)C(O)C(O)C1O (centres undefined)
inactive: [1] > 100 µM | [2] > 100 µM | [3] > 100 µM | [4] > 100 µM | [5] > 100 µM | [6] > 100 µM | [7] > 100 µM | [8] > 100 µM | [9] 72.9 µM | [10] > 100 µM | [11] > 100 µM | [12] > 100 µM | [13] > 100 µM | [14] > 100 µM | [15] > 100 µM

CCCCCC1C2C(=O)NC(=O)C1C(=O)NC2=O (centres undefined)
inactive: [1] > 100 µM | [2] > 100 µM | [3] > 100 µM | [4] > 100 µM | [5] > 100 µM | [7] > 100 µM | [8] > 100 µM | [9] > 100 µM | [10] > 100 µM | [11] > 100 µM | [12] > 100 µM | [13] > 100 µM | [16] > 100 µM | [14] > 100 µM | [15] > 100 µM

CCCCC#COP(=O)(OCC)OCC
inactive: [3] > 100 µM | [4] > 100 µM | [5] > 100 µM | [6] > 100 µM | [7] > 100 µM | [8] > 100 µM | [9] > 100 µM | [10] > 100 µM | [11] > 100 µM | [12] > 100 µM | [13] > 100 µM | [14] > 100 µM

NC(=S)/N=C(/c1nc2ccc(Cl)cc2nc1O)C(O)c1ccccc1Cl (centres undefined)
inactive: [1] > 100 µM | [2] > 100 µM | [3] > 100 µM | [4] > 100 µM | [7] > 100 µM | [8] > 100 µM | [9] > 100 µM | [11] > 100 µM | [12] > 100 µM | [13] > 100 µM | [16] > 100 µM | [14] > 100 µM | [15] > 100 µM
